# Key:
# ErbB2 = target: T1, ErbB2 (Homo sapiens, UniProt P04626); assay: ErbB-2 substrate phosphorylation assay (HTRF); assay type: biochemical
# T1 construct: made in house; host or cells: baculovirus expression system
# How it was run: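 Baculovirus-expressed EGFR (0.8 nM) or ErbB2 (10 nM) in enzyme mix, preincubated 1 h at 20 °C with compound (0.00027–47.6 μM final), then 90 min at 20 °C with substrate mix of 20 μM ATP, 0.8 uM biotinylated Peptide C, MnCl2, MOPS pH 7.5. Phosphotyrosine by HTRF; pIC50 reported.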
# B-Raf = B-Raf (Homo sapiens, UniProt P15056); assay: B-Raf Accelerated MEK ATPase assay (BRAMA), Method A or B; assay type: biochemical
# Sequence of B-Raf (P15056 whole entry): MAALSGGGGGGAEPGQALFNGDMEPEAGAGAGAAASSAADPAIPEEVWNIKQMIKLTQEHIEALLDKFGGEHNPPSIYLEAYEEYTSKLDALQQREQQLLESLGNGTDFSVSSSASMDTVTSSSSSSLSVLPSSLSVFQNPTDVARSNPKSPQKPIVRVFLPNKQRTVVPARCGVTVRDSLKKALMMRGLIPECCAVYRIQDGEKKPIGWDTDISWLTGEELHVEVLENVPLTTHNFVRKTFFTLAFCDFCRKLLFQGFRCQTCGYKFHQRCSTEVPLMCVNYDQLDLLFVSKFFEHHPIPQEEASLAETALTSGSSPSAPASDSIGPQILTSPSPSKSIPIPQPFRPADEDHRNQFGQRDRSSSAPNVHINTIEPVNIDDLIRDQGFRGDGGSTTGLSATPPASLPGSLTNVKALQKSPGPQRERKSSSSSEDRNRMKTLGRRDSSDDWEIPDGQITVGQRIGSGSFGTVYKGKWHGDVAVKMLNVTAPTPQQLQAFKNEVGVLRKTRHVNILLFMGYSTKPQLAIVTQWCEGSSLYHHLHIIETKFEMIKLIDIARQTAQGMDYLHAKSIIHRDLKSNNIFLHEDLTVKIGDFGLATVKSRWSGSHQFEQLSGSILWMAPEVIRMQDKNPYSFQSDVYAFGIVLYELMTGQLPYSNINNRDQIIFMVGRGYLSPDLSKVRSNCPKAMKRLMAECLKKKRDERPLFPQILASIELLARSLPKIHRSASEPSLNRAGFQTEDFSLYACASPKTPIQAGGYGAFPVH
# How it was run: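 Activated Raf plus non-phosphorylated MEK drives MEK-mediated ATP hydrolysis; ADP formation coupled via pyruvate kinase/lactate dehydrogenase to NADH oxidation. Method A read kinetically; Method B used 150 nM final MEK and a single end-point read.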
# [1] = Method B: final MEK 150 nM, single end point read
# T1 sequence (P04626 23-1255): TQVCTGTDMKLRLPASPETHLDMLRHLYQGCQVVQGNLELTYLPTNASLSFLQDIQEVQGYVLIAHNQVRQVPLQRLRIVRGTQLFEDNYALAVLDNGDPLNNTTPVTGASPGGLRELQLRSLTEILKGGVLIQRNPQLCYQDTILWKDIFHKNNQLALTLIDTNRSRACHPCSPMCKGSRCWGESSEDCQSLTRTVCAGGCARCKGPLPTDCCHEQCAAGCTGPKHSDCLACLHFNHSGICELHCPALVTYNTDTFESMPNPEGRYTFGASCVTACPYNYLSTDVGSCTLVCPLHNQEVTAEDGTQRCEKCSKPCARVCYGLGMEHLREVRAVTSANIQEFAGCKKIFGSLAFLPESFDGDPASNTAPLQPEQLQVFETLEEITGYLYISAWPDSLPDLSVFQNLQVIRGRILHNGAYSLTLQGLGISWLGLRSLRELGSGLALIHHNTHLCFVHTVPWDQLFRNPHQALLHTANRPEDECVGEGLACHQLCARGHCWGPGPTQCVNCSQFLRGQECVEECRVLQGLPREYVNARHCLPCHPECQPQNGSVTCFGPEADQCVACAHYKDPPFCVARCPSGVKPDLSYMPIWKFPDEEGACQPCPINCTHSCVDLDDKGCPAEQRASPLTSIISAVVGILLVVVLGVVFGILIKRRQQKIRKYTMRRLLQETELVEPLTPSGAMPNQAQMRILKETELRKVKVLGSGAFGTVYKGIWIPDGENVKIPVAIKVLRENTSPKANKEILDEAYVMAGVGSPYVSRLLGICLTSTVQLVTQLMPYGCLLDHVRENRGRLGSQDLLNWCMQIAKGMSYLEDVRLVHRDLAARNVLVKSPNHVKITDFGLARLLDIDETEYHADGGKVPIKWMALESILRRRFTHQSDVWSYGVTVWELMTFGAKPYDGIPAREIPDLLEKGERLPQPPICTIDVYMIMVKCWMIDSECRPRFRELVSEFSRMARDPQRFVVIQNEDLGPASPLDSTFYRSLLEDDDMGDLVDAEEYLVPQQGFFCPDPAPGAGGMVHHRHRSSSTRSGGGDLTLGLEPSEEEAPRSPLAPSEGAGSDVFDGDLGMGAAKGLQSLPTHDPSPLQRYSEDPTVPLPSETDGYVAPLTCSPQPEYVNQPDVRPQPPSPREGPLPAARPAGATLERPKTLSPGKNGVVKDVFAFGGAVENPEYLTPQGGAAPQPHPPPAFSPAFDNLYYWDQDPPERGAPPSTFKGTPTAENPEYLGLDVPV
IC50 (ErbB2) [nM],IC50 (B-Raf; [1]) [nM],IC50 (B-Raf; Method A) [nM],Compound
> 1000,< 100,–,"CCc1nc(-c2cccc(NS(=O)(=O)c3ccccc3)c2)c(-c2ccnc(Nc3ccc(N4CCN(C(C)=O)CC4)nc3)n2)s1 [Example 3, N-{3-[5-(2-{[6-(4-Acetyl-1-piperazinyl)-3-pyridinyl]amino}-4-pyrimidinyl)-2-ethyl-1,3-thiazol-4-yl]phenyl}benzenesulfonamide]"
> 1000,–,100 to 1000,CCc1nc(-c2cccc(NS(=O)(=O)c3ccccc3)c2)c(-c2ccnc(Nc3ccc(N4CCOCC4)c(F)c3)n2)s1 [Example 4]
100 to 1000,–,< 100,"CCc1nc(-c2cccc(NS(=O)(=O)c3ccccc3)c2)c(-c2ccnc(Nc3ccc(OC)c(N4CCN(CCS(C)(=O)=O)CC4)c3)n2)s1 [Example 5, N-[3-(2-Ethyl-5-{2-[(4-(methyloxy)-3-{4-[2-(methylsulfonyl)ethyl]-1-piperazinyl}phenyl)amino]-4-pyrimidinyl}-1,3-thiazol-4-yl)phenyl]benzenesulfonamide]"
< 100,< 100,–,CC(=O)N1CCc2cc(Nc3nccc(-c4sc(C(C)C)nc4-c4cccc(NS(=O)(=O)c5ccccc5)c4)n3)ccc21 [Example 71]
> 1000,< 100,–,CC(C)c1nc(-c2cccc(NS(=O)(=O)c3ccccc3)c2)c(-c2ccnc(Nc3ccc(CC4CCN(CCS(C)(=O)=O)CC4)c(F)c3)n2)s1 [Example 72]
100 to 1000,< 100,–,CC(C)c1nc(-c2cccc(NS(=O)(=O)c3ccccc3)c2)c(-c2ccnc(Nc3ccc(F)c(N4CCN(CCS(C)(=O)=O)CC4)c3)n2)s1 [Example 73]
> 1000,< 100,–,CC(C)c1nc(-c2cccc(NS(=O)(=O)c3ccccc3)c2)c(-c2ccnc(Nc3ccc(N4CCN(CCS(C)(=O)=O)CC4)c(F)c3F)n2)s1 [Example 74]
100 to 1000,< 100,–,CC(C)c1nc(-c2cccc(NS(=O)(=O)c3c(F)cccc3F)c2)c(-c2ccnc(Nc3ccc(N4CCN(C(C)C)CC4)cc3O)n2)s1 [Example 78]
100 to 1000,< 100,–,COc1cc(N2CCN(CCF)CC2)ccc1Nc1nccc(-c2sc(C(C)C)nc2-c2cccc(NS(=O)(=O)c3c(F)cccc3F)c2)n1 [Example 79]
> 1000,< 100,–,CC(C)c1nc(-c2cccc(NS(=O)(=O)c3c(F)cccc3F)c2)c(-c2ccnc(Nc3ccc(N4CCN(CCO)CC4)nc3)n2)s1 [Example 80]
100 to 1000,< 100,–,CC(C)c1nc(-c2cccc(NS(=O)(=O)c3c(F)cccc3F)c2)c(-c2ccnc(Nc3cccc(N4CCN(C)CC4)c3)n2)s1 [Example 81]
100 to 1000,< 100,–,CC(C)c1nc(-c2cccc(NS(=O)(=O)c3c(F)cccc3F)c2)c(-c2ccnc(Nc3ccc(N4CCCNCC4)nc3)n2)s1 [Example 82]
> 1000,< 100,–,CC(C)c1nc(-c2cc(F)cc(NS(=O)(=O)c3ccc(F)cc3)c2)c(-c2ccnc(Nc3ccc(N4CCOCC4)c(F)c3)n2)s1 [Example 83]
> 1000,< 100,–,CC(C)c1nc(-c2cc(F)cc(NS(=O)(=O)c3c(F)cccc3F)c2)c(-c2ccnc(Nc3ccc(N4CCOCC4)nc3)n2)s1 [Example 84]
100 to 1000,< 100,–,CC(C)c1nc(-c2cc(F)cc(NS(=O)(=O)c3c(F)cccc3F)c2)c(-c2ccnc(Nc3ccc(N4CCOCC4)c(F)c3)n2)s1 [Example 85]
100 to 1000,< 100,–,CC(C)c1nc(-c2cccc(NS(=O)(=O)c3c(F)cccc3F)c2)c(-c2ccnc(Nc3cc(F)c(N4CCN(CCS(C)(=O)=O)CC4)cc3F)n2)s1 [Example 87]
100 to 1000,< 100,–,CC(C)c1nc(-c2cccc(NS(=O)(=O)c3c(F)cccc3F)c2)c(-c2ccnc(Nc3ccc(N4CCCN(CCS(C)(=O)=O)CC4)nc3)n2)s1 [Example 88]
100 to 1000,< 100,–,CC(C)c1nc(-c2cccc(NS(=O)(=O)c3c(F)cccc3F)c2)c(-c2ccnc(Nc3ccc(N4CC[C@@H](O)C4)nc3)n2)s1 [Example 89]
< 100,< 100,–,Cc1cc(N2CCC(N3CCCCC3)CC2)ccc1Nc1nccc(-c2sc(C(C)C)nc2-c2cccc(NS(=O)(=O)c3c(F)cccc3F)c2)n1 [Example 91]
> 1000,< 100,–,CC(C)c1nc(-c2cccc(NS(=O)(=O)c3ccccc3)c2)c(-c2ccnc(Nc3ccc(N4CCOCC4)cn3)n2)s1 [Example 92]
100 to 1000,< 100,–,C=C(C)c1nc(-c2cccc(NS(=O)(=O)c3c(F)cccc3F)c2)c(-c2ccnc(Nc3ccc(N4CCN(CCF)CC4)c(F)c3)n2)s1 [Example 93]
100 to 1000,< 100,–,CC(C)c1nc(-c2ccc(F)c(NS(=O)(=O)c3c(F)cccc3F)c2)c(-c2ccnc(Nc3ccc(N4CCN(CCS(C)(=O)=O)CC4)c(F)c3)n2)s1 [Example 95]
> 1000,< 100,–,CC(=O)N1CCN(c2ccc(Nc3nccc(-c4sc(C(C)C)nc4-c4cccc(NS(=O)(=O)c5cc(F)ccc5F)c4)n3)cn2)CC1 [Example 96]

# From patent publication US20110319392A1, “Thiazole Sulfonamide And Oxazole Sulfonamide Kinase Inhibitors” (priority 2009, published 2011)
